Tested on: MDA-MB-231 cells
Assay: Cell viability/cell growth, cells re-treated every 48 hours
Type: cell-based
Details: triple negative breast cancer cells
Experimental: MDA-MB-231 cells were plated on a 96-well plate at 10,000 cells per well to evaluate the effects of BSA alone, conjugated DHA-BSA, Liposomal DHA, and a ghost liposome on cell viability. The cells were re-treated every 48 hours. […] All treatments were compared to the cell/media control. The ghost had no effect on cell viability.

CC/C=C\C/C=C\C/C=C\C/C=C\C/C=C\C/C=C\CCC(=O)O [DHA, Docosahexanoic acid]
concentration that inhibits cell growth with comparable effect: 25 to 50 µM
